The target of one series is CYP3A4 (Homo sapiens, UniProt P08684). Briefly: Cytochrome P450 (CYP450) Inhibition Assay, CYP3A4 (Vivid fluorescence, BOMCC substrate). The note with it: human, P450 Baculosomes (recombinant CYP3A4), probe BOMCC (Vivid substrate).

As usually defined, the melting point is the temperature of the solid-liquid transition. Broadly, the inhibition is the drop in the measured response relative to a control, in per cent.

CYP3A4, sequence (P08684 whole entry): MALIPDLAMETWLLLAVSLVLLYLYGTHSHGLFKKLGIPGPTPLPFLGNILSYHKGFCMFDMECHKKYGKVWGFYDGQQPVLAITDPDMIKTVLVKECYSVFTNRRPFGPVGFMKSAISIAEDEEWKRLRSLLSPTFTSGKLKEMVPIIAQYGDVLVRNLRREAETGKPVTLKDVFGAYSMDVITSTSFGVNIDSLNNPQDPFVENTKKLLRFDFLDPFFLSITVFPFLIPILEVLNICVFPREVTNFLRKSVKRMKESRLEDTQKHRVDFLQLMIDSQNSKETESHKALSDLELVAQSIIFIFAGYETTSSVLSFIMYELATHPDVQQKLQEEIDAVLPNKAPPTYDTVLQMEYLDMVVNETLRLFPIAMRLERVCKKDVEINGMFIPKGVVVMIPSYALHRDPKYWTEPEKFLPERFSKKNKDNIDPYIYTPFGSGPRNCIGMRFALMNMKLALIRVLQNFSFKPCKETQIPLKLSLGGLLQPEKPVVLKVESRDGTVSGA

`CCCCCCNC(=O)Nc1cccc2c1C1(COc3cc4c(cc31)OCCO4)C(=O)N2C` (stereo not shown) [Example 16.35, 1-hexyl-3-(1′-methyl-2′-oxo-1′,2,2′,3-tetrahydrospiro[furo[2,3-g][1,4]benzodioxine-8,3′-indol]-4′-yl)urea] yielded a melting point of 154 to 155 °C. Further, the inhibition at 10 µM at CYP3A4 was over 50%.

In turn, `CN1C(=O)C2(COc3cc4c(cc32)OCCO4)c2c(NC(=O)NC3CCCC3)cccc21` (stereo not shown) [Example 16.36, 1-cyclopentyl-3-(1′-methyl-2′-oxo-1′,2,2′,3-tetrahydrospiro[furo[2,3-g][1,4]benzodioxine-8,3′-indol]-4′-yl)urea] showed a melting point of 133 to 135 °C. Also, the inhibition at 10 µM on CYP3A4 was under 50%.

For `CN1C(=O)C2(COc3cc4c(cc32)OCCO4)c2c(NC(=O)NC3CCCCC3)cccc21` (stereo not shown) [Example 16.37, 1-cyclohexyl-3-(1′-methyl-2′-oxo-1′,2,2′,3-tetrahydrospiro[furo[2,3-g][1,4]benzodioxine-8,3′-indol]-4′-yl)urea], the melting point is 175 to 177 °C. Also, the inhibition at 10 µM on CYP3A4 is under 50%.

The molecule `CN1C(=O)C2(COc3cc4c(cc32)OCCO4)c2c(C(=O)NC3CCCCC3)cccc21` (stereo not shown) [Example 16.38, N-cyclohexyl-1′-methyl-2′-oxo-1′,2,2′,3-tetrahydrospiro[furo[2,3-g][1,4]benzodioxine-8,3′-indole]-4′-carboxamide] had a melting point of 139 to 140 °C. Besides, the inhibition at 10 µM at CYP3A4 is under 50%.

As for `CN1C(=O)C2(COc3cc4c(cc32)OCCO4)c2c(C(=O)NC3CCCC3)cccc21` (stereo not shown) [Example 16.39, N-cyclopentyl-1′-methyl-2′-oxo-1′,2,2′,3-tetrahydrospiro[furo[2,3-g][1,4]benzodioxine-8,3′-indole]-4′-carboxamide], the melting point lay in the range of 135 to 136 °C. The inhibition at 10 µM on CYP3A4 was under 50%.

For `CN1C(=O)C2(COc3cc4c(cc32)OCCO4)c2c(C(=O)N3CCCC3)cccc21` (stereo not shown) [Example 16.41, 1′-methyl-4′-(pyrrolidin-1-ylcarbonyl)-2,3-dihydrospiro[furo[2,3-g][1,4]benzodioxine-8,3′-indol]-2′(1′H)-one], the melting point lay in the range of 242 to 244 °C. Besides, the inhibition at 10 µM at CYP3A4 was under 50%.

With `CCCCCNC(=O)c1cccc2c1C1(COc3cc4c(cc31)OCCO4)C(=O)N2C` (stereo not shown) [Example 16.42, 1′-methyl-2′-oxo-N-pentyl-1′,2,2′,3-tetrahydrospiro[furo[2,3-g][1,4]benzodioxine-8,3′-indole]-4′-carboxamide], the melting point fell in the range of 191 to 193 °C. For the same molecule, the inhibition at 10 µM on CYP3A4 is under 50%.

In turn, `COCCNC(=O)c1cccc2c1C1(COc3cc4c(cc31)OCCO4)C(=O)N2C` (stereo not shown) [Example 16.43, N-(2-methoxyethyl)-1′-methyl-2′-oxo-1′,2,2′,3-tetrahydrospiro[furo[2,3-g][1,4]benzodioxine-8,3′-indole]-4′-carboxamide] returned a melting point of 97 to 100 °C. Besides, the inhibition at 10 µM at CYP3A4 is under 50%.

`CN1C(=O)C2(COc3cc4c(cc32)OCCO4)c2c(C(=O)NCc3ccc(F)cc3)cccc21` (stereo not shown) [Example 16.44, N-(4-fluorobenzyl)-1′-methyl-2′-oxo-1′,2,2′,3-tetrahydrospiro[furo[2,3-g][1,4]benzodioxine-8,3′-indole]-4′-carboxamide]: the melting point lay in the range of 149 to 150 °C. The inhibition at 10 µM at CYP3A4 was under 50%.

`CCCCCCNC(=O)c1cccc2c1C1(COc3cc4c(cc31)OCCO4)C(=O)N2C` (stereo not shown) [Example 16.45, N-hexyl-1′-methyl-2′-oxo-1′,2,2′,3-tetrahydrospiro[furo[2,3-g][1,4]benzodioxine-8,3′-indole]-4′-carboxamide] registered a melting point of 172 to 173 °C. Besides, the inhibition at 10 µM on CYP3A4 is over 50%.

`CN1C(=O)C2(COc3cc4c(cc32)OCCO4)c2c(C(=O)NCc3ccccn3)cccc21` (stereo not shown) [Example 16.46, 1′-methyl-2′-oxo-N-(pyridin-2-ylmethyl)-1′,2,2′,3-tetrahydrospiro[furo[2,3-g][1,4]benzodioxine-8,3′-indole]-4′-carboxamide] had a melting point of 214 to 215 °C. At CYP3A4, the inhibition at 10 µM was under 50%.

In the case of `CN1C(=O)C2(COc3cc4c(cc32)OCCO4)c2c(C(=O)Nc3ccc(F)cc3)cccc21` (stereo not shown) [Example 16.47, N-(4-fluorophenyl)-1′-methyl-2′-oxo-1′,2,2′,3-tetrahydrospiro[furo[2,3-g][1,4]benzodioxine-8,3′-indole]-4′-carboxamide], the melting point was over 250 °C. Besides, the inhibition at 10 µM at CYP3A4 is under 50%.

Turning to `Nc1cccc2c1C1(COc3cc4c(cc31)OCCO4)C(=O)N2Cc1ncccc1C(F)(F)F` (stereo not shown) [Example 16.50, 4′-amino-1′-{[3-(trifluoromethyl)pyridin-2-yl]methyl}-2,3-dihydrospiro[furo[2,3-g][1,4]benzodioxine-8,3′-indol]-2′(1′H)-one], the melting point lay within 243 to 245 °C. Moreover, the inhibition at 10 µM on CYP3A4 is under 50%.

Take `O=C1Nc2cccc(O)c2C12COc1cc3c(cc12)OCCO3` (stereo not shown) [Example 16.51, 4′-hydroxy-2,3-dihydrospiro[furo[2,3-g][1,4]benzodioxine-8,3′-indol]-2′(1′H)-one]: the melting point was over 250 °C. On CYP3A4, the inhibition at 10 µM was under 50%.

`CN1C(=O)C2(COc3cc4c(cc32)OCCO4)c2c(O)cccc21` (stereo not shown) [Example 16.52, 4′-hydroxy-1′-methyl-2,3-dihydrospiro[furo[2,3-g][1,4]benzodioxine-8,3′-indol]-2′(1′H)-one] gave a melting point of over 250 °C. In addition, at CYP3A4, the inhibition at 10 µM was under 50%.

In the case of `CN1C(=O)C2(COc3cc4c(cc32)OCCO4)c2c(Oc3ccccn3)cccc21` (stereo not shown) [Example 16.53, 1′-methyl-4′-(pyridin-2-yloxy)-2,3-dihydrospiro[furo[2,3-g][1,4]benzodioxine-8,3′-indol]-2′(1′H)-one], the melting point is 219 to 221 °C. Besides, the inhibition at 10 µM on CYP3A4 was over 50%.

The molecule `COCCOCCOc1cccc2c1C1(COc3cc4c(cc31)OCCO4)C(=O)N2C` (stereo not shown) [Example 16.54, 4′-[2-(2-methoxyethoxy)ethoxy]-1′-methyl-2,3-dihydrospiro[furo[2,3-g][1,4]benzodioxine-8,3′-indol]-2′(1′H)-one] returned a melting point of 109 to 110 °C. Moreover, the inhibition at 10 µM at CYP3A4 was under 50%.

Turning to `CN1C(=O)C2(COc3cc4c(cc32)OCCO4)c2c(Oc3ncccc3C(F)(F)F)cccc21` (stereo not shown) [Example 16.55, 1′-methyl-4′-{[3-(trifluoromethyl)pyridin-2-yl]oxy}-2,3-dihydrospiro[furo[2,3-g][1,4]benzodioxine-8,3′-indol]-2′(1′H)-one], the melting point is over 250 °C. The inhibition at 10 µM at CYP3A4 is over 50%.

`CN1C(=O)C2(COc3cc4c(cc32)OCCO4)c2c(Oc3ccc(C(F)(F)F)cc3)cccc21` (stereo not shown) [Example 16.56, 1′-methyl-4′-[4-(trifluoromethyl)phenoxy]-2,3-dihydrospiro[furo[2,3-g][1,4]benzodioxine-8,3′-indol]-2′(1′H)-one] yielded a melting point of 198 to 201 °C. Further, at CYP3A4, the inhibition at 10 µM is over 50%.

As to `CN1C(=O)C2(COc3cc4c(cc32)OCCO4)c2c(OCc3ccccc3)cccc21` (stereo not shown) [Example 16.57, 4′-(benzyloxy)-1′-methyl-2,3-dihydrospiro[furo[2,3-g][1,4]benzodioxine-8,3′-indol]-2′(1′H)-one], the melting point was 198 to 200 °C. The inhibition at 10 µM on CYP3A4 was over 50%.

These data come from patent US8263606B2 (Xenon Pharmaceuticals Inc., priority 2008, dated 2012).
